Experimental data from paper PMC7324608 (Scientific Reports, 2020).
Positions count from the first letter of the chain named. Numbers in names are those of the source. Where no end group is shown, it is not given here. [ ]: non-standard residue; d: D form. Tyr(3-NO2) = N[C@@H](Cc1ccc(O)c([N+](=O)[O-])c1)C(=O)O; 2Abz = Nc1ccccc1C(=O)O

T1: HpHtrA (Helicobacter pylori, UniProt G2J5T2)
T1 construct: (HpHtrA, G18-K475, UniProt G2J5T2); GST (N, cleaved yes); made in house; host or cells: E. coli BL21
T1 sequence (G2J5T2 18-475): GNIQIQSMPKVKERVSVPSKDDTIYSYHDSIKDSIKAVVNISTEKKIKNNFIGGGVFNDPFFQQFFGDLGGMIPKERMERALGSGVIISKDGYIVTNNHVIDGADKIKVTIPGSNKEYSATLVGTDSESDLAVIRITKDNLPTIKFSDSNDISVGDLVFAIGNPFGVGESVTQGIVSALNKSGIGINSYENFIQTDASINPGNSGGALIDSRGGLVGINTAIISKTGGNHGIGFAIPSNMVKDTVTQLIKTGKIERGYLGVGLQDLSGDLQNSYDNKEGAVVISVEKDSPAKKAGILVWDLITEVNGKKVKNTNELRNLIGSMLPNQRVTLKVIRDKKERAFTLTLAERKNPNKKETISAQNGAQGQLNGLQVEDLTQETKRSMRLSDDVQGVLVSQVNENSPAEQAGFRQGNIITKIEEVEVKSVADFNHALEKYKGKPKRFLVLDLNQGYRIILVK

T2: HpHtrA wt (Helicobacter pylori, UniProt G2J5T2)
T2 sequence (G2J5T2 18-475): T1 sequence (G2J5T2 18-475)

B1: HpHtrA S164A (enzyme)
chain: T1 sequence (G2J5T2 18-475) with S147A
B2: HtrA wild type (wt) from the H. pylori strain Hp26695 (enzyme)
chain: T1 sequence (G2J5T2 18-475)
notes: also called HpHtrA; HpHtrA wt

How the values were obtained:
HpHtrA [1] = biological target: T1, HpHtrA; experiment: in vitro casein cleavage by HpHtrA (Coomassie SDS-PAGE); assay type: biochemical; conditions: 1 mM; 10 µg casein, 250 ng HpHtrA, 16 h, 37 °C
Text: (§1) The proteins were separated by SDS-PAGE and visualized by staining with Coomassie Brilliant Blue G250 (Lactan, Vienna, Austria). […] Proteins were separated using SDS-PAGE and blotted onto a nitrocellulose membrane. Human Cdh1 was detected by an antibody recognizing the EC5 domain of hCdh1 (Abcam, Cambridge, UK) and a polyclonal serum was used to detect HpHtrA[22]. Independent experiments were repeated at least three times.

HpHtrA [2] = biological target: T1, HpHtrA; experiment: in vitro E-cadherin (hCdh1) cleavage by HpHtrA (Western blot); assay type: biochemical; conditions: 1 mM; 50 ng hCdh1, 250 ng HpHtrA, 16 h, 37 °C
Text: as §1

HpHtrA wt = biological target: T2, HpHtrA wt; experiment: MS analysis of HpHtrA-mediated cleavage of the FRET peptide; assay type: biochemical; set-up: (HpHtrA, G18-K475, UniProt G2J5T2); GST (N, cleaved yes); made in house; host or cells: E. coli BL21; conditions: peptide:HpHtrA 20:1, 50 mM HEPES pH 7.4, 3 h, 37 °C, MALDI-TOF-MS
Protocol: (§2) Fig. S4. MS analysis of the HpHtrA-mediated cleavage products of 2-Abz-AQRVAF-Y(3-NO2)-NH2. The […]
(§3) ratio in 50 mM HEPES buffer (pH 7.4) for 3 h at 37°C. The samples were desalted by using ZipTip® pipette tips (Merck Millipore) and measured by MALDI -TOF-MS (positive mode). The peptide was found to be stable in the buffer in the absence of the protease as well as in the presence of the HpHtrA […]
(§4) (1 picture or pasted object on this page, not shown here)

[3] = assay type: physicochemical; conditions: 50 mM HEPES pH 7.4, 3 h, 37 °C, absence of protease and presence of HpHtrA SA mutant
Protocol: as §2, §3, §4

[4] = biological target: the molecule itself; experiment: casein zymography + other: non-reducing SDS-PAGE; recombinant HpHtrA proteins in non-reducing sample buffer without beta-mercaptoethanol; SDS-PAGE with 0.1% casein, renatured and developed 24 h at 37 °C, or Coomassie-stained non-reducing SDS-PAGE for detection of multimers
[5] = biological target: the molecule itself; experiment: non-reducing SDS-PAGE; HpHtrA wt untreated or with increasing concentrations of ZnCl2 or CuCl2; Coomassie-stained SDS-PAGE under non-reducing conditions

| Molecule | effect on HtrA-mediated casein degradation (HpHtrA [1]) | effect on HpHtrA-mediated hCdh1 cleavage/fragmentation (HpHtrA [2]) | other results |
| --- | --- | --- | --- |
| O=C(O)CN(CCOCCOCCN(CC(=O)O)CC(=O)O)CC(=O)O [EGTA, ethylene glycol-bis(β-aminoethyl ether)-N,N,N′,N′-tetraacetic acid, reference compound] | did not alter | considerably enhanced |  |
| 2-Abz-AQRVAF-Y(3-NO2)-NH2 ([2Abz]AQRVAF[Tyr(3-NO2)]-NH2; N-terminus assumed; SMILES CC(C)[C@H](NC(=O)[C@H](CCCNC(=N)N)NC(=O)[C@H](CCC(N)=O)NC(=O)[C@H](C)NC(=O)c1ccccc1N)C(=O)N[C@@H](C)C(=O)N[C@@H](Cc1ccccc1)C(=O)N[C@@H](Cc1ccc(O)c([N+](=O)[O-])c1)C(N)=O) [FRET substrate peptide AQRVAF with N-terminal 2-aminobenzoyl fluorophore and C-terminal 3-nitro-tyrosine quencher] |  |  | cleavage of the peptide by HpHtrA (HpHtrA wt): fully cleaved, preferentially after Val; stability of the peptide [3]: stable |
| [Ca+2].[Cl-].[Cl-] [Ca^++, CaCl2] |  | significantly blocked |  |
| O=C(O)CN(CCN(CC(=O)O)CC(=O)O)CC(=O)O [EDTA, ethylenediaminetetraacetic acid, reference compound] | did not alter | considerably enhanced |  |
| B1 |  |  | binding result [4]: binds |
| B2 |  |  | binding result [5]: binds |
